According to patent US9210927B2, “Pesticidal compositions and processes related thereto” (Dow AgroSciences LLC, priority 2013, dated 2015):

How the values were obtained:
CL (Trichoplusia ni) = experiment: Bioassays on Cabbage Looper (CL), 128-well diet tray assay; type: in vivo; conditions: 168 h, percent mortality, second instar larvae, 50 μg/cm^2 on artificial diet, five to seven days, 25° C., read-out: CL Rating
Protocol: Bioassays on Beet Armyworm (“BAW”) and Corn Earworm (“CEW”) and Cabbage Looper (“CL”)
Certain molecules disclosed in this document were tested against BAW and CEW and CL using procedures described in the following examples. In the reporting of the results, the “BAW & CEW & CL Rating Table” was used (See Table Section).
Bioassays on CL (Trichoplusia ni)
Bioassays on CL were conducted using a 128-well diet tray assay. One to five second instar CL larvae were placed in each well (3 mL) of the diet tray that had been previously filled with 1 mL of artificial diet to which 50 μg/cm^2 of the test compound (dissolved in 50 μL of 90:10 acetone-water mixture) had been applied (to each of eight wells) and then allowed to dry. Trays were covered with a clear self-adhesive cover, and held at 25° C., 14:10 light-dark for five to seven days. Percent mortality was recorded for the larvae in each well; activity in the eight wells was then averaged. The results are indicated in the table entitled “Table 3A: Assay Results” (See Table Section).

BAW (Spodoptera exigua) = experiment: Bioassays on Beet Armyworm (BAW), 128-well diet tray assay; type: in vivo; conditions: Spodoptera exigua, 168 h; percent mortality, second instar larvae, 50 μg/cm^2 on artificial diet, five to seven days, 25° C.; read-out: BAW Rating
Method in brief: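 Diet surface dosed at 50 μg/cm^2 (acetone-water 90:10 vehicle), dried, then infested with second-instar larvae, one to five per well. After five to seven days at 25° C. under 14:10 light-dark, mortality per well was scored and averaged over eight wells.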

SMILES | melting point [°C] | pest or weed control at 50 µg/cm2 (CL (Trichoplusia ni)) [%] | pest or weed control at 50 µg/cm2 (BAW (Spodoptera exigua)) [%]
NC(=O)c1ccc(/C=C/C(c2cc(Cl)cc(Cl)c2)C(F)(F)F)cc1 (stereo not drawn) [AC2] | 110 to 112 | – | –
CCNC(=O)N(C)NC(=O)c1ccc(/C=C/C(c2cc(Cl)c(Cl)c(Cl)c2)C(F)(F)F)cc1Br (stereo not drawn) [Compound F1, (E)-2-(2-Bromo-4-(4,4,4-trifluoro-3-(3,4,5-trichlorophenyl)but-1-en-1-yl)benzoyl)-N-ethyl-1-methylhydrazinecarboxamide] | – | 50 to 100 | 50 to 100
O=C(NCC(F)(F)F)NNC(=O)c1ccc(/C=C/C(c2cc(Cl)c(Cl)c(Cl)c2)C(F)(F)F)cc1Br (stereo not drawn) [Compound F7, (E)-2-(2-Bromo-4-(4,4,4-trifluoro-3-(3,4,5-trichlorophenyl)but-1-en-1-yl)benzoyl)-N-(2,2,2-trifluoroethyl)hydrazinecarboxamide] | – | 50 to 100 | 50 to 100
CN(NC(=O)c1ccc(/C=C/C(c2cc(Cl)c(Cl)c(Cl)c2)C(F)(F)F)cc1Br)C(=O)NCC(F)(F)F (stereo not drawn) [FA1] | – | 50 to 100 | 50 to 100
CN(NC(=O)c1ccc(/C=C/C(c2cc(Cl)c(Cl)c(Cl)c2)C(F)(F)F)cc1C(F)(F)F)C(=O)NCC(F)(F)F (stereo not drawn) [FA2] | – | 50 to 100 | 50 to 100
CN(NC(=O)c1ccc(/C=C/C(c2cc(Br)cc(Br)c2)C(F)(F)F)cc1C(F)(F)F)C(=O)NCC(F)(F)F (stereo not drawn) [FA4] | – | 50 to 100 | 50 to 100
CN(NC(=O)c1ccc(/C=C/C(c2cc(Br)c(Cl)c(Br)c2)C(F)(F)F)cc1C(F)(F)F)C(=O)NCC(F)(F)F (stereo not drawn) [FA5] | – | 50 to 100 | 50 to 100
CN(NC(=O)c1ccc(/C=C/C(c2cc(Cl)c(Br)c(Cl)c2)C(F)(F)F)cc1C(F)(F)F)C(=O)NCC(F)(F)F (stereo not drawn) [FA6] | – | 50 to 100 | 50 to 100
CN(NC(=O)c1ccc(/C=C/C(c2cc(Cl)c(F)c(Cl)c2)C(F)(F)F)cc1C(F)(F)F)C(=O)NCC(F)(F)F (stereo not drawn) [FA7] | – | 50 to 100 | 50 to 100
CN(NC(=O)c1ccc(/C=C/C(c2cc(Cl)c(Cl)c(Cl)c2)C(F)(F)F)cc1C(F)(F)F)C(=O)NCC(F)F (stereo not drawn) [FA8] | – | 50 to 100 | 50 to 100
CN(NC(=O)c1ccc(/C=C/C(c2cc(Cl)c(Cl)c(Cl)c2)C(F)(F)F)cc1C(F)(F)F)C(=O)NCCC(F)(F)F (stereo not drawn) [FA9] | – | 50 to 100 | 50 to 100
